The results in this text go back to ChEMBL document CHEMBL1201862, “PubChem BioAssay data set” (2004).

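Values below derive from 48-hour exposures of cells grown in 96-well plates, with endpoints linearly interpolated between the two concentrations bracketing the appropriate inhibition level. Here, GI50 denotes the concentration required for 50% inhibition of growth.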 Calls of active or inactive are those of the source. No stated cut-off is given here; in the data, active = GI50 up to about 1.1 µM and inactive = higher. Where a SMILES comes first, the peptide text is derived from it. The star is where a group is joined. Boc = CC(C)(C)OC(=O)*; OBn = c1ccc(CO*)cc1

Test systems include PC-3; OVCAR-4; MDA-N; SR; 786-0; HT-29; SK-OV-3; NCI-H226; UACC-257; MDA-MB-231; UO-31; MDA-MB-435; CAKI-1; Malme-3M; SN12C; RXF 393; SK-MEL-5; OVCAR-5; NCI/ADR-RES; SF-539.
Common to all, as to experiment: NCI-60 cell line screen, 48 h

In the case of `O=[N+]([O-])c1cc(-[n+]2cc([O-])on2)ccc1Cl`, the GI50 with PC-3 is > 100 µM (inactive); with OVCAR-4 it was 14 µM (inactive); in the test with MDA-N it was 14.9 µM (inactive); with SR it was 29.9 µM (inactive); with 786-0, 21.3 µM (inactive); in the test with HT-29, 15.1 µM (inactive). For the same compound, the GI50 is 33.5 µM (inactive) in the test on SK-OV-3; 83.8 µM (inactive) in the test on NCI-H226; 13.8 µM (inactive) with UACC-257; 17.4 µM (inactive) with MDA-MB-231; 17.3 µM (inactive) in the test with UO-31; 27.6 µM (inactive) in the test with MDA-MB-435. Moreover, the GI50 in the test on CAKI-1 is 2.44 µM (inactive); in the test with Malme-3M, 13.6 µM (inactive); in the test with SN12C, 16.3 µM (inactive); in the test on RXF 393, 14.8 µM (inactive); with SK-MEL-5, 10.2 µM (inactive); in the test on OVCAR-5 it was 18.1 µM (inactive). Further, the GI50 in the test on NCI/ADR-RES was 18 µM (inactive).

In the case of `CN(Cc1cnc2nc(N)nc(N)c2n1)c1ccc(C(=O)NC(CO)CCCO)cc1` (stereo not drawn), the GI50 with PC-3, in the test on MDA-N, in the test on SR, with SF-539, in the test with 786-0 and in the test with HT-29 was > 100 µM (inactive) throughout. Also, the GI50 in the test on SK-OV-3, with NCI-H226, with UACC-257, with MDA-MB-231, in the test on UO-31 and with MDA-MB-435 was > 100 µM (inactive) in each case. Further, the GI50 in the test with CAKI-1, in the test with Malme-3M, with SN12C, with RXF 393, in the test with SK-MEL-5 and with OVCAR-5 was > 100 µM (inactive) each time. The GI50 in the test with NCI/ADR-RES is > 100 µM (inactive).

As to `O=S1(=O)c2ccccc2NC(=S)CC1c1ccccc1` (stereo not drawn), the GI50 in the test on PC-3, with OVCAR-4, in the test with MDA-N, in the test on SR, in the test on 786-0 and in the test with HT-29 was > 100 µM (inactive) each time. The GI50 with SK-OV-3 is > 100 µM (inactive); with NCI-H226 it was > 100 µM (inactive); with UACC-257, 24.8 µM (inactive); in the test with MDA-MB-231, > 100 µM (inactive); in the test on UO-31, > 100 µM (inactive); in the test on MDA-MB-435 it was > 100 µM (inactive). Besides, the GI50 in the test on CAKI-1, in the test on Malme-3M, in the test with SN12C, in the test with RXF 393, with SK-MEL-5 and with OVCAR-5 was > 100 µM (inactive) each time. Also, in the test with NCI/ADR-RES, the GI50 is > 100 µM (inactive).

On to `O=c1oc2ccc([N+](=O)[O-])cc2cc1Br`, for which the GI50 in the test on PC-3 was > 100 µM (inactive); in the test with OVCAR-4, > 100 µM (inactive); with MDA-N it was > 100 µM (inactive); with SR, 47.3 µM (inactive); with SF-539 it was > 100 µM (inactive); with 786-0, > 100 µM (inactive). Besides, the GI50 in the test on HT-29, in the test on NCI-H226, in the test with UACC-257, in the test on MDA-MB-231, in the test with UO-31 and in the test with MDA-MB-435 was > 100 µM (inactive) in each case. Moreover, the GI50 in the test with CAKI-1 was > 100 µM (inactive); in the test with Malme-3M it was > 100 µM (inactive); in the test with SN12C, > 100 µM (inactive); with RXF 393, 21.7 µM (inactive); in the test with SK-MEL-5 it was > 100 µM (inactive); in the test on OVCAR-5, > 100 µM (inactive). Moreover, the GI50 in the test on NCI/ADR-RES is > 100 µM (inactive).

Regarding `COC(=O)C(Cc1ccccc1)OC(=O)C(N)CC(=O)O` (stereo not drawn), the GI50 in the test on PC-3, in the test on MDA-N, in the test on SR, with SF-539, in the test with 786-0 and in the test on HT-29 was > 100 µM (inactive) throughout. Moreover, the GI50 with SK-OV-3 was > 100 µM (inactive); in the test with NCI-H226, > 100 µM (inactive); in the test with UACC-257, 32.4 µM (inactive); with MDA-MB-231 it was > 100 µM (inactive); in the test with UO-31, > 100 µM (inactive); in the test on MDA-MB-435, 17.1 µM (inactive). Further, the GI50 in the test with CAKI-1, in the test with Malme-3M, in the test with SN12C, in the test on RXF 393, in the test on SK-MEL-5 and with OVCAR-5 was > 100 µM (inactive) in each case. Further, the GI50 in the test with NCI/ADR-RES is > 100 µM (inactive).

Consider `COc1ccc(CNc2nc3ccccc3nc2C(=O)O)cc1`, for which the GI50 in the test with PC-3 was > 100 µM (inactive); in the test on MDA-N, > 100 µM (inactive); in the test on SR, 41.1 µM (inactive); in the test with SF-539 it was > 100 µM (inactive); in the test on 786-0 it was 57.8 µM (inactive); in the test with HT-29, > 100 µM (inactive). Also, the GI50 in the test with NCI-H226 was > 100 µM (inactive); in the test with UACC-257 it was > 100 µM (inactive); in the test with MDA-MB-231, > 100 µM (inactive); with UO-31, 39 µM (inactive); with MDA-MB-435, > 100 µM (inactive); in the test with CAKI-1, > 100 µM (inactive). The GI50 with SN12C is > 100 µM (inactive); in the test with RXF 393 it was > 100 µM (inactive); in the test on SK-MEL-5, 52.6 µM (inactive); with OVCAR-5, > 100 µM (inactive); in the test with NCI/ADR-RES, 38.9 µM (inactive).

On to `CC(=O)O[C@H]1CC[C@@]2(C)C(=CC[C@@H]3[C@@H]2CC[C@]2(C)c4nc(Cl)ccc4C[C@@H]32)C1`, for which the GI50 with PC-3 is 50 µM (inactive); in the test with OVCAR-4 it was 38.8 µM (inactive); with MDA-N, 29.3 µM (inactive); with SR it was 37 µM (inactive); in the test on 786-0 it was 32 µM (inactive); with HT-29, 36.8 µM (inactive). Moreover, the GI50 in the test on SK-OV-3 is > 100 µM (inactive); in the test with NCI-H226, > 100 µM (inactive); in the test on UACC-257, 32.9 µM (inactive); with MDA-MB-231, > 100 µM (inactive); with UO-31, 64.6 µM (inactive); in the test with MDA-MB-435 it was 41.4 µM (inactive). In addition, the GI50 was 66.4 µM (inactive) in the test with CAKI-1; 61.1 µM (inactive) with Malme-3M; 41.7 µM (inactive) in the test on SN12C; 33.3 µM (inactive) in the test with RXF 393; 30.8 µM (inactive) in the test with SK-MEL-5; 38.1 µM (inactive) in the test with OVCAR-5. The GI50 in the test on NCI/ADR-RES is 47.4 µM (inactive).

As for `COc1cc(C(c2ccc3c(c2)OCO3)C2SCCCS2)cc(OC)c1OC` (stereo not drawn), the GI50 was 3.6 µM (inactive) with PC-3; 6.65 µM (inactive) in the test on OVCAR-4; 0.372 µM (active) in the test with MDA-N; 0.332 µM (active) in the test with SR; 2.74 µM (inactive) in the test with 786-0; 1.89 µM (inactive) in the test with HT-29. In addition, the GI50 is 2.81 µM (inactive) in the test on SK-OV-3; 2.7 µM (inactive) in the test with NCI-H226; 6.08 µM (inactive) in the test on UACC-257; 2.3 µM (inactive) in the test with MDA-MB-231; 6.22 µM (inactive) with UO-31; 0.661 µM (active) with MDA-MB-435. In addition, the GI50 in the test with CAKI-1 is 2.67 µM (inactive); in the test with Malme-3M, 3.36 µM (inactive); in the test with SN12C, 2.51 µM (inactive); in the test on RXF 393, 1.35 µM (inactive); with SK-MEL-5, 3.34 µM (inactive); with OVCAR-5, 4.81 µM (inactive). In the test with NCI/ADR-RES, the GI50 is 2.15 µM (inactive).

With `O=C1C[C@H]2[C@H](c3ccc(Br)cc3)[C@H]3C(=O)c4ccccc4NC(=O)[C@@H]3[C@@]2(O)c2ccccc2N1`, the GI50 with PC-3 was 8.15 µM (inactive); in the test with OVCAR-4, 12.5 µM (inactive); in the test with MDA-N it was 17.1 µM (inactive); in the test on SR, 7.41 µM (inactive); with SF-539 it was 19.5 µM (inactive); with 786-0 it was 19.4 µM (inactive). For the same compound, the GI50 is 10.7 µM (inactive) in the test with HT-29; 21 µM (inactive) in the test on SK-OV-3; 14.4 µM (inactive) with NCI-H226; 20.2 µM (inactive) in the test on UACC-257; 14.4 µM (inactive) with MDA-MB-231; 10 µM (inactive) with MDA-MB-435. Besides, the GI50 in the test on CAKI-1 is 5.85 µM (inactive); in the test on Malme-3M, 19.7 µM (inactive); in the test on SN12C, 24.5 µM (inactive); with RXF 393 it was 3.48 µM (inactive); in the test with SK-MEL-5 it was 19.3 µM (inactive); with OVCAR-5, 27.2 µM (inactive). In addition, in the test on NCI/ADR-RES, the GI50 is 14.9 µM (inactive).

For `CC(NC(=O)C(Cc1ccccc1)NC(=O)C(Cc1ccccc1)NC(=O)OC(C)(C)C)C(=O)OCc1ccccc1` (stereo not drawn) (Boc-Phe-Phe-Ala-OBn; configuration not given here), the GI50 is 68.7 µM (inactive) with PC-3; > 100 µM (inactive) in the test on MDA-N; 28.6 µM (inactive) in the test with SR; 37.9 µM (inactive) in the test with SF-539; > 100 µM (inactive) in the test with 786-0; 75.9 µM (inactive) in the test with HT-29. The GI50 in the test on SK-OV-3 was > 100 µM (inactive); with NCI-H226, 6.05 µM (inactive); in the test on UACC-257, > 100 µM (inactive); in the test on MDA-MB-231, > 100 µM (inactive); in the test on UO-31 it was 27.7 µM (inactive); in the test with MDA-MB-435, > 100 µM (inactive). Also, the GI50 was > 10 µM (inactive) in the test with CAKI-1; 93.1 µM (inactive) in the test on Malme-3M; > 100 µM (inactive) in the test on SN12C; 30.7 µM (inactive) in the test on RXF 393; 94.2 µM (inactive) with SK-MEL-5; > 100 µM (inactive) in the test on OVCAR-5. Moreover, the GI50 in the test on NCI/ADR-RES is > 100 µM (inactive).
